# In patent US10993943B2, “Crystalline forms of selinexor and process for their preparation” (WATSON LABORATORIES INC., priority 2017, dated 2021):
# Assay: Solubility in aqueous medium (buffers at pH 1.2, 4.5, 6.8)
# Assay type: physicochemical
# Details: Form T8 in comparison with Form A
SMILES,solubility in aqueous medium (pH 4.5 (acetate buffer)),solubility in aqueous medium (pH 6.8 (phosphate buffer)),solubility in aqueous medium (pH=1.2 (HCl buffer))
"O=C(/C=C\n1cnc(-c2cc(C(F)(F)F)cc(C(F)(F)F)c2)n1)NNc1cnccn1 [Form A, (Z)-3-(3-(3,5-bis(trifluoromethyl)phenyl)-1H-1,2,4-triazol-1-yl)-N′-(pyrazin-2-yl) acrylohydrazide]",practically insoluble,practically insoluble,practically insoluble
"O=C(/C=C\n1cnc(-c2cc(C(F)(F)F)cc(C(F)(F)F)c2)n1)NNc1cnccn1 [Form T8, (Z)-3-(3-(3,5-bis(trifluoromethyl)phenyl)-1H-1,2,4-triazol-1-yl)-N′-(pyrazin-2-yl) acrylohydrazide]",enhanced solubility,enhanced solubility,enhanced solubility
